Laboratory results reported in patent publication US7999101B2, “Cationic lipids for the transfection of nucleic acids” (Politecnico Di Milano, priority 2005, dated 2011).

Legend:
Format in all cases: cell-based
[1] = tested on: cell line PC3 (human androgen-independent prostate carcinoma); assay: Transfection of PC3 cells with plasmid pEGFP-N1; GFP expression by cytofluorimetry 48 h later, and survival; conditions: for capable of giving a significant percentage of living cells expressing the GFP protein (in words) / toxicity / cell mortality with respect to 16, 22 and 17 (in words): 5 μg pEGFP-N1
Experimental: The plasmid vector PEGFP-N1 (BD Biosciences), containing the gene encoding green fluorescent protein (GFP) has been used in the transfection tests. Due to its properties, GFP is a useful tool for monitoring “passive” gene expression: indeed, fluorescent detection in this particular system is performed by means of cytofluorimetry or by microscopy.
Transfection tests have been performed on the cell line PC3 (human androgen-independent prostate carcinoma) with the plasmid PEGFP-N1 used in quantities equal to 2.5 and 5 μg. The general experimental outline envisaged 4 hours of transfection in reduced-serum culture medium, and in the absence of antibiotics. Upon completion of transfection, the culture medium has been replaced with normal growth medium and the evaluation of GFP expression has been performed 48 hours later by means of cytofluorimetry.

[2] = tested on: normal human thyrocytes (Line 636); assay: Transfection of normal human thyrocytes (Line 636) with 16/pEGFP-N1 complexes; GFP expression and survival; conditions: 16/pEGFP-N1 (5 μg)
[3] = tested on: transformed human kidney cells (Line 293); assay: Transfection of transformed human kidney cells (Line 293) with 16/pEGFP-N1 complexes; GFP expression and survival; conditions: 16/pEGFP-N1 (5 μg)
[4] = 2.5 μg pEGFP-N1, 16 and 17 at CR = 6.0, commercial agents per manufacturer, at least 3 independent experiments (Table 3)
[5] = 2.5 μg pEGFP-N1, 16 and 17 at CR = 6.0, commercial agents per manufacturer, mean percentage with respect to control, at least 3 independent experiments (Table 3)
[6] = 2.5 μg pEGFP-N1, charge ratio CR = 1.5
[7] = 2.5 μg pEGFP-N1, charge ratio CR = 3.0
[8] = 2.5 μg pEGFP-N1, charge ratio CR = 6.0 (Table 1)
[9] = 5 μg pEGFP-N1, 16 and 17 at CR = 6.0, commercial agents per manufacturer, at least 3 independent experiments (Table 3)
[10] = 5 μg pEGFP-N1, 16 and 17 at CR = 6.0, commercial agents per manufacturer, mean percentage with respect to control, at least 3 independent experiments (Table 3)
[11] = 5 μg pEGFP-N1, charge ratio CR = 1.5
[12] = 5 μg pEGFP-N1, charge ratio CR = 3.0
[13] = 5 μg pEGFP-N1, charge ratio CR = 6.0 (Table 1)
[14] = CR = 6, percentage with respect to control, preliminary data
[15] = 5 μg pEGFP-N1, constant charge ratio CR = 6 (Table 2)
[16] = 5 μg pEGFP-N1, constant charge ratio CR = 6, percentage with respect to control (Table 2)

CCCCCCCCCCCCCCNc1nc(NCCS)nc(NCCCN)n1 [Compound 16]
GFP+ living cells [1, 4]: 20.5% | Total GFP+ cells [1, 4]: 25.4% | Survival [1, 5]: 81.0% | GFP+ living cells [1, 6]: 1.18% | Total GFP+ cells [1, 6]: 4.75% | Survival ([1]; 2.5 μg pEGFP-N1, charge ratio CR = 1.5, percentage with respect to control): 71.4% | GFP+ living cells [1, 7]: 4.05% | Total GFP+ cells [1, 7]: 7.81% | Survival ([1]; 2.5 μg pEGFP-N1, charge ratio CR = 3.0, percentage with respect to control): 79.8% | GFP+ living cells [1, 8]: 32.40% | Total GFP+ cells [1, 8]: 46.13% | Survival ([1]; 2.5 μg pEGFP-N1, charge ratio CR = 6.0, percentage with respect to control (Table 1)): 86.3% | GFP+ living cells [1, 9]: 41.14% | Total GFP+ cells [1, 9]: 57% | Survival [1, 10]: 58.0% | GFP+ living cells [1, 11]: 1.54% | Total GFP+ cells [1, 11]: 1.85% | Survival ([1]; 5 μg pEGFP-N1, charge ratio CR = 1.5, percentage with respect to control): 100% | GFP+ living cells [1, 12]: 10.6% | Total GFP+ cells [1, 12]: 12.45% | Survival ([1]; 5 μg pEGFP-N1, charge ratio CR = 3.0, percentage with respect to control): 96.0% | GFP+ living cells [1, 13]: 64.6% | Total GFP+ cells [1, 13]: 70.70% | Survival ([1]; 5 μg pEGFP-N1, charge ratio CR = 6.0, percentage with respect to control (Table 1)): 64.4% | cellular toxicity (in words) ([1]; 2.5 and 5 μg pEGFP-N1): absence of any significant cellular toxicity | capacity to induce the transfection of PC3 cells (in words) ([1]; 2.5 and 5 μg pEGFP-N1, GFP expression 48 hours following transfection): significant percentage of GFP-positive cells | transfection efficiency compared with Lipofectamine 2000 (in words) ([1]; equal amounts of plasmid DNA): comparable to that of Lipofectamine 2000 only in the presence of higher quantities of plasmid DNA | Survival [2, 14]: 75.3% | GFP+ living cells ([2]; CR = 6, preliminary data): 34.3% | Total GFP+ cells ([2]; CR = 6, preliminary data): 53.8% | Survival [3, 14]: 86.8% | GFP+ living cells ([3]; CR = 6, preliminary data): 58.3% | Total GFP+ cells ([3]; CR = 6, preliminary data): 76.2%

NCCCNc1nc(NCCS)nc(NCc2ccccc2)n1 [Compound 20]
capable of giving a significant percentage of living cells expressing the GFP protein (in words) [1]: none | toxicity / cell mortality with respect to 16, 22 and 17 (in words) [1]: did not show excessive levels of toxicity | GFP+ living cells [1, 15]: 0.01% | Total GFP+ cells [1, 15]: 0.9% | Survival [1, 16]: 74.0%

CCCCCCCC/C=C\CCCCCCCC(=O)OCC(C[N+](C)(C)C)OC(=O)CCCCCCC/C=C\CCCCCCCC.[Cl-] (centres unmarked) [DOTAP, reference compound]
GFP+ living cells [1, 4]: 12.0% | Total GFP+ cells [1, 4]: 15.8% | Survival [1, 5]: 78.6% | GFP+ living cells [1, 9]: 21.3% | Total GFP+ cells [1, 9]: 23.5% | Survival [1, 10]: 65.8% | percentage of transfection with respect to compounds 16 and 17 (in words) ([1]; both quantities of plasmid DNA): lower percentage of transfection | toxicity with respect to compounds 16 and 17 (in words) ([1]; both quantities of plasmid DNA): less toxic

CCCCCCNc1nc(NCCS)nc(NCCCN)n1 [Compound 21]
capable of giving a significant percentage of living cells expressing the GFP protein (in words) [1]: none | toxicity / cell mortality with respect to 16, 22 and 17 (in words) [1]: significantly greater cell mortality | GFP+ living cells [1, 15]: 0.3% | Total GFP+ cells [1, 15]: 2.1% | Survival [1, 16]: 12.8%

CCCCCCCCCCCCCCNc1nc(NCCS)nc(N2CCNCC2)n1 [Compound 18, 2-[4-(2-N-piperazinyl)-6-tetradecylamino-[1,3,5]triazin-2-ylamino]-ethanethiol]
capable of giving a significant percentage of living cells expressing the GFP protein (in words) [1]: none | toxicity / cell mortality with respect to 16, 22 and 17 (in words) [1]: significantly greater cell mortality | GFP+ living cells [1, 15]: 8.4% | Total GFP+ cells [1, 15]: 56.2% | Survival [1, 16]: 6.3%
